Patent US20220177954A1, “NUCLEIC ACID PROBES” (CYTOTEST INC., priority 2020, published 2022)

Legend:
[1] = test system: PC-3 cell lines wt, chd1 ko1, chd1 ko2; test: Viability cell proliferation assay (PrestoBlue) in PC-3 wt versus chd1 ko isogenic cell lines; assay type: cell-based, human; conditions: CHD1 deficient (CRISPR-Cas9 knock out) PC-3 cells versus wild type, 24 hrs exposure, then 5 days drug-free
Procedure: PC-3 prostate cell line was purchased from ATCC® and grown in RPMI 1640 (Gibco) supplemented with 10% FBS (Gibco). RPE1-CHD1 knock out cells were provided by Alan D. D'Andrea's laboratory. Cells were incubated at 37° C. in 5% CO2, and regularly tested for Mycoplasma spp. contamination.
Full length SpCas9 ORF was introduced in PC-3 cell population by Lentiviral transduction using lentiCas9-Blast (Addgene #52962) construction. After antibiotics (blasticidin) selection, survival populations were single cell cloned, isogenic cell lines were generated and tested for Cas9 activity by cleavage assay.
CHD1 was targeted in stable CRISPR-Cas9 expressor isogenic PC-3 cell line using guide RNA CHD1_ex2_g1 (caccg[…]), resulting in PC-3 chd1 ko 1, and chd1 ko 2 homozygous loss cell lines.
Exponentially growing PC-3 cell lines wt, chd1 ko1, chd1 ko2 were seeded in 96-well plates (1000 cells/well) and incubated for 36 hrs to facilitate cell attachment. Identical cell numbers of seeded parallel isogenic lines were verified by the Celigo Imaging Cytometer after attachment.
Cells were exposed to Talazoparib (Selleckchem), Olaparib (MedChemExpress) and Bleomycin sulfate (Fisher Scientific) for 24 hrs, then kept in drug-free fresh media for 5 days until cell growth was determined by the addition of PrestoBlue (Invitrogen) and incubated for 2.5 hrs. Cell viability was determined by using the BioTek plate reader system. Fluorescence was recorded at 560 nm/590 nm, and values were calculated based on the fluorescence intensity. IC50 values were determined by using the AAT Bioquest IC50 calculator tool. P-values were calculated using student's t-test. P-values <0.05 were considered statistically significant.

[2] = test system: CHD1 null cells; conditions: cited from earlier work

O=C(c1cc(Cc2n[nH]c(=O)c3ccccc23)ccc1F)N1CCN(C(=O)C2CC2)CC1 [olaparib, Olaparib]
increase in sensitivity upon CHD1 deletion [1]: approximately 5 fold
olaparib sensitivity of CHD1-deficient cancer cells [2]: relatively mild

Cn1ncnc1[C@H]1c2n[nH]c(=O)c3cc(F)cc(c23)N[C@@H]1c1ccc(F)cc1 [talazoparib, Talazoparib]
increase in sensitivity upon CHD1 deletion [1]: 15-20 fold

Bleomycin sulfate
increase in sensitivity upon CHD1 deletion [1]: 5 fold
